Measurements from the supplement of paper PMC10627819.

Columns and labels:
[1] = tested on: S. aureus DSM 20231; experiment: fitness (endpoint OD595 vs no drug) (fraction); higher = more growth
How it was run: (§1)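 Fitness compares growth at the stationary-phase transition with the robust mean of no-drug control wells, as a ratio of optical densities. The ratio is capped at 1. Wells of 384-well plates held 30 µl, or 55 µl for S. pneumoniae, inoculated at OD595 0.01. Readings at OD595 every 30 min for 14 h at 37 °C were corrected against the first reading.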

[2] = tested on: S. aureus Newman; experiment: as above
How it was run: as §1

[3] = tested on: S. pneumoniae D39V; experiment: as above
How it was run: as §1

[4] = tested on: B. subtilis 168; experiment: Bliss interaction score (quartile over a dose matrix) (fitness difference); higher = more antagonism (negative = synergy)
How it was run: (§2)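 Values were capped at 1 after dividing OD595 at stationary-phase entry by the plate's robust no-drug mean. This ratio is fitness, and single-drug fitness was inferred from the combination data. The Bliss score is observed minus product-expected fitness, given as quartiles over technical, biological and donor/recipient replicates.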

[5] = tested on: S. aureus DSM 20231; experiment: as above
How it was run: as §2

[6] = tested on: S. aureus Newman; experiment: as above
How it was run: as §2

[7] = tested on: S. pneumoniae D39V; experiment: as above
How it was run: as §2
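Wherever Bliss interaction score (quartile over a dose matrix) is given: first quartile when negative (synergy) and third quartile when positive (antagonism).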

CC1(C)S[C@@H]2[C@H](NC(=O)[C@H](N)c3ccc(O)cc3)C(=O)N2[C@H]1C(=O)O [Amoxicillin] + C[n+]1ccc(-c2cc[n+](C)cc2)cc1 [Paraquat]
Settings	fitness
[1], first compound 0.0625 µg/mL, partner 1.25 µg/mL	0.512
[1], first compound 0.0625 µg/mL, partner 2.5 µg/mL	0.517
[1], first compound 0.0625 µg/mL, partner 5 µg/mL	0.488
[1], first compound 0.125 µg/mL, partner 1.25 µg/mL	0.433
[1], first compound 0.125 µg/mL, partner 2.5 µg/mL	0.498
[1], first compound 0.125 µg/mL, partner 5 µg/mL	0.431
[1], first compound 0.25 µg/mL, partner 2.5 µg/mL	0.0563
[1], first compound 0.25 µg/mL, partner 5 µg/mL	0.0722
[2], first compound 0.0625 µg/mL, partner 1.25 µg/mL	0.89
[2], first compound 0.0625 µg/mL, partner 2.5 µg/mL	0.87
[2], first compound 0.0625 µg/mL, partner 5 µg/mL	0.86
[2], first compound 0.125 µg/mL, partner 1.25 µg/mL	0.861
[2], first compound 0.125 µg/mL, partner 2.5 µg/mL	0.885
[2], first compound 0.125 µg/mL, partner 5 µg/mL	0.838
[2], first compound 0.25 µg/mL, partner 5 µg/mL	0.829
[3], first compound 0.0008 µg/mL, partner 1.5 µg/mL	≥ 1
[3], first compound 0.0008 µg/mL, partner 3 µg/mL	0.961
[3], first compound 0.0008 µg/mL, partner 6 µg/mL	0.921
[3], first compound 0.0015 µg/mL, partner 1.5 µg/mL	0.988
[3], first compound 0.0015 µg/mL, partner 3 µg/mL	0.939
[3], first compound 0.0015 µg/mL, partner 6 µg/mL	0.913
[3], first compound 0.003 µg/mL, partner 1.5 µg/mL	0.96
[3], first compound 0.003 µg/mL, partner 3 µg/mL	0.847
[3], first compound 0.003 µg/mL, partner 6 µg/mL	0.864

fitness, one replicate
Settings	partner 1.25 µg/mL	partner 1.5 µg/mL	partner 2.5 µg/mL	partner 3 µg/mL	partner 5 µg/mL	partner 6 µg/mL
[1], first compound 0.5 µg/mL	0.0127	–	0.0289	–	0.0485	–
[3], first compound 0.006 µg/mL	–	0.542	–	0.561	–	0.422

Settings	Bliss interaction score
[4]	-0.061
[5]	0.0506
[6]	0.0578
[7]	-0.0705

CC1(C)S[C@@H]2[C@H](NC(=O)[C@H](N)c3ccc(O)cc3)C(=O)N2[C@H]1C(=O)O [Amoxicillin] + Cc1cc(NS(=O)(=O)c2ccc(N)cc2)no1 [Sulfamethoxazol]
fitness
Settings	partner 1 µg/mL	partner 2 µg/mL	partner 4 µg/mL
[1], first compound 0.0625 µg/mL	0.445	0.506	0.522
[1], first compound 0.125 µg/mL	0.376	–	–
[1], first compound 0.25 µg/mL	0.0292	0.0368	0.035
[2], first compound 0.0625 µg/mL	0.878	0.88	0.883
[2], first compound 0.125 µg/mL	0.858	0.876	0.876
[2], first compound 0.25 µg/mL	0.81	0.847	0.844
[3], first compound 0.0008 µg/mL	0.936	0.972	0.926
[3], first compound 0.0015 µg/mL	0.882	0.928	0.878
[3], first compound 0.003 µg/mL	0.87	0.883	0.875

fitness, one replicate
Settings	partner 1 µg/mL	partner 2 µg/mL	partner 4 µg/mL	partner 8 µg/mL
[1], first compound 0.5 µg/mL	0.015	0.0516	0.0038	–
[2], first compound 0.125 µg/mL	–	–	–	0.948
[2], first compound 0.25 µg/mL	–	–	–	0.938
[2], first compound 0.5 µg/mL	–	0.812	0.852	0.84
[3], first compound 0.006 µg/mL	0.368	0.423	0.388	–

Settings	Bliss interaction score
[4]	-0.0805
[5]	-0.0441
[6]	-0.0589
[7]	-0.09
